Results taken from publication PMC10225205 (Cancer Medicine, 2023).
Several values for one entry are separate records, joined by “and”; a condition that tells them apart may be missing. Equal entries are not always repeated. Entries after “also recorded” stand apart in the source; their conditions may differ.

Experiments:
[1] = system: FGF23; test: Plasma FGF23 concentration (Meso Scale Discovery assay); type: in vivo, human
Procedure: Plasma samples for pharmacodynamic assessments were collected predose on Days 1, 14, and 15 of Cycle 1 and any time on Day 1 (±3 days) of the subsequent cycles. […] Baseline FGF23 concentrations were assessed in plasma samples collected on Days 1 and 15 of Cycle 1 using a commercially available assay (Meso Scale Discovery). […] Inhibition of FGFR2 was assessed using an ex vivo assay that measured phosphorylated FGFR2α concentration following exposure of FGFR2‐amplified gastric cancer cells (KATOIII) to patient plasma.

[2] = FIGHT-102 pemigatinib plasma/urine pharmacokinetics (noncompartmental); conditions: for AUC(0-t) / AUC / Cmax / Vd/F / Tmax / half-life: human, in vivo, 13.5 mg; for AUC: AUCss,0-24h; for Vd/F: Vz/F; for Tmax: median; for half-life: t½
Procedure: Postdose samples were collected at 0.5, 1, 2, 4, 6, and 8 h on Day 1, and at 1 h on Day 14 of Cycle 1. For patients in the CD regimen, a postdose sample at 6 h on Day 14 was also collected.
Pharmacodynamic data were presented using summary statistics.

[3] = c1-2 9 mg ID n=3, c3-4 13.5 mg ID n=23, c5-6 18 mg ID n=5, c7-8 ID subtotal n=31, c9-10 13.5 mg CD n=13, c11-12 total n=44, odd c all grades, even c Grade ≥3
[4] = geometric mean (CV%), C1D14, 13.5 mg ID or CD, n 33
[5] = mean ± SD, C1D14, 13.5 mg ID or CD, n 33

In the case of `CCN1C(=O)N(c2c(F)c(OC)cc(OC)c2F)Cc2cnc3[nH]c(CN4CCOCC4)cc3c21` [Pemigatinib], the “Mean increase of plasma FGF23” value ([1]; 9 mg) is reported as 2.6 fold, the “Mean increase of plasma FGF23” value ([1]; 13.5 mg) is reported as 2.9 fold and the “Rise of median FGF23 concentration from baseline” value ([1]; 13.5 mg QD, first 2 weeks of treatment) is reported as “slightly more than twofold”. For the same compound, the “Mean increase of plasma FGF23” value ([1]; 18 mg) was 3.9 fold, the “Patients with elevated FGF23 concentration at Day 15 of Cycle 1” value ([1]; 37/41 patients, all doses) was 90% and the “Mean FGF23 concentration” value ([1]; C1D15, all doses, baseline 198 ± 29) was 464 ± 49 pg/mL. The “Maximum tolerated dose (MTD)” value (9-18 mg QD) was “not identified; also recorded: not reached”, the “Clinically notable TEAE: Eyelash changes (trichiasis)” value [3] was 2 (15.4) n (%) and the “TEAE: ALT increased” value [3] was 6 (13.6) n (%). For the same compound, the “TEAE: AST increased” value [3] was 2 (15.4) n (%), the “TEAE: Blood alkaline phosphatase increased” value [3] was 2 (15.4) n (%) and the “TEAE: Blood creatinine increased” value [3] was 6 (13.6) n (%). For the same compound, the “TEAE: Conjunctivitis” value [3] was 2 (15.4) n (%), the “TEAE: Decreased appetite” value [3] was 2 (15.4) n (%) and the “TEAE: Dry skin” value [3] was 2 (15.4) n (%). The “TEAE: Keratitis” value [3] was 2 (15.4) n (%), the “TEAE: Malaise” value [3] was 6 (13.6) n (%) and the “TEAE: Nail discoloration” value [3] was 2 (15.4) n (%). For the same compound, the “TEAE: Paronychia” value [3] was 6 (13.6) n (%), the “TEAE: Punctate keratitis” value [3] was 2 (15.4) n (%) and the “TEAE: Trichiasis” value [3] was 2 (15.4) n (%). For the same compound, the “TEAE: Vomiting” value [3] was 6 (13.6) n (%), the Chorioretinopathy (human, in vivo) was 2.3% and the “Clinically notable TEAE: serous retinal detachment (category)” value (human, in vivo) was 18.2%. The “Clinically notable ocular TEAE: dry eye (category)” value (human, in vivo) was 25%, the “Dose interruptions due to clinically notable TEAEs” value (human, in vivo) was 22.7% and the “Dose reductions due to clinically notable TEAEs” value (human, in vivo) was 6.8%. The “Dry eye (term)” value (human, in vivo) was 6.8%, the “Eyelash changes (trichiasis)” value (human, in vivo) was 9.1% and the “Hyperphosphatemia leading to dose reduction” value (human, in vivo) was 2.3%. For the same compound, the Hypophosphatemia (human, in vivo) was 4.5%, the Keratitis (human, in vivo) was 11.4% and the Lacrimation increased (human, in vivo) was 2.3%. The Nail discoloration (human, in vivo) was 6.8%, the Nail ridging (human, in vivo) was 2.3% and the “Nail toxicity TEAEs” value (human, in vivo) was 31.8. For the same compound, the Oncholysis (human, in vivo) was 4.5%, the Onychomadesis (human, in vivo) was 11.4% and the Paronychia (human, in vivo) was 13.6%. For the same compound, the “Patients with at least 1 treatment-related TEAE” value (human, in vivo) was 97.7%, the “Patients with treatment-related TEAEs of Grade ≥3” value (human, in vivo) was 15.9% and the Punctate keratitis (human, in vivo) was 6.8%. The “Serous retinal detachment (term)” value (human, in vivo) was 11.4%, the “Severity of hyperphosphatemia events” value (human, in vivo) was “Grades 1 or 2” and the Subretinal fluid (human, in vivo) was 4.5%. The “Treatment-related Grade ≥3 TEAE, each of anemia, punctate keratitis, diarrhea, stomatitis, ALT increased, AST increased, decreased appetite, hematuria” value (human, in vivo) was 2.3%, the “Treatment-related alanine aminotransferase increased, Grade ≥3” value (human, in vivo) was 1 (2.3) n (%) and the “Treatment-related aspartate aminotransferase increased, Grade ≥3” value (human, in vivo) was 1 (2.3) n (%). For the same compound, the “Treatment-related decreased appetite, Grade ≥3” value (human, in vivo) was 1 (2.3) n (%), the “Treatment-related diarrhea, Grade ≥3” value (human, in vivo) was 1 (2.3) n (%) and the “Treatment-related stomatitis, Grade ≥3” value (human, in vivo) was 1 (2.3) n (%). The Vision blurred (human, in vivo) was 4.5%, the “Recommended phase 2 dose (RP2D)” value (human, in vivo, 21 days) was 13.5 mg and the “Discontinuation due to hyperphosphatemia” value (in vivo) was “No patients”. For the same compound, the “Dose-limiting toxicities (DLTs)” value (in vivo) was “No DLTs”, the “Patients with any TEAE” value (in vivo) was “all enrolled patients” and the “TEAE with a fatal outcome” value (overall, considered unrelated to pemigatinib) was 6.8%. The “tmax, median” value ([2]; C1D1, 13.5 mg ID or CD, n 36) was 1 h, the “CLss/F, geometric mean (CV%)” value ([2]; C1D14, 13.5 mg ID or CD, n 33) was 10.2 (55.5) L/h and 10.2 L/h and the “CLss/F, mean ± SD” value ([2]; C1D14, 13.5 mg ID or CD, n 33) was 11.6 ± 6.52 L/h. The “Cmin,ss, geometric mean (CV%)” value ([2]; C1D14, 13.5 mg ID or CD, n 33) was 56.0 (61.0) nM, the “Cmin,ss, mean ± SD” value ([2]; C1D14, 13.5 mg ID or CD, n 33) was 66.2 ± 45.2 nM and the AUC(0-t) ([2]; AUC0-24h, geometric mean (CV%), C1D1, 13.5 mg ID or CD, n 36) was 1.88 µM·h. For the same compound, the AUC(0-t) ([2]; AUC0-24h, mean ± SD, C1D1, 13.5 mg ID or CD, n 36) was 2.02 ± 0.762 µM·h, the AUC(0-t) ([2]; AUClast, geometric mean (CV%), C1D1, 13.5 mg ID or CD, n 36) was 1.85 µM·h and the AUC(0-t) ([2]; AUClast, mean ± SD, C1D1, 13.5 mg ID or CD, n 36) was 1.99 ± 0.748 µM·h. It also gave an AUC [2, 4] of 2.72 µM·h, an AUC [2, 5] of 3.09 ± 1.68 µM·h and a Cmax ([2]; Cmax, geometric mean (CV%), C1D1, 13.5 mg ID or CD, n 36) of 216 nM. For the same compound, the Cmax ([2]; Cmax, mean ± SD, C1D1, 13.5 mg ID or CD, n 36) was 260 ± 136 nM, the Cmax ([2]; Cmax,ss, geometric mean (CV%), C1D14, 13.5 mg ID or CD, n 33) was 195 nM and the Cmax ([2]; Cmax,ss, mean ± SD, C1D14, 13.5 mg ID or CD, n 33) was 238 ± 139 nM. It also gave a Vd/F [2, 4] of 201 L, a Vd/F [2, 5] of 258 ± 216 L and a Tmax ([2]; C1D1, 13.5 mg ID or CD, n 36) of 1.43 h. The Tmax ([2]; C1D14, 13.5 mg ID or CD, n 33) was 1.02 h, the half-life [2, 4] was 13.6 h and the half-life [2, 5] was 15.4 ± 9.03 h.
